Results published in patent US6355799B1, “Substituted benzene compounds, process for their preparation, and herbicidal and defoliant compositions containing them” (ISK Americas Incorporated, priority 1997, dated 2002).

Columns and labels:
Assay type in all cases: in vivo
[1] = system: redroot pigweed (Amaranthus retroflexus, AMARE); assay: Pre-emerge test, greenhouse herbicide activity screening; details: pre-emerge, rated 14 days after application, 0 = no damage, 100 = complete death
How it was run: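 Rating: 0–100 visual injury, 14 DAA. Application: acetone, 187 l/ha, 15–1000 g ai/ha, flat-fan track sprayer with nozzle 40–45 cm above soil or canopy. Post-emerge runs used 0.25% v/v surfactant on 2–3 leaf plants.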

[2] = system: barnyardgrass (Echinochloa crus-galli, ECHCG); assay: as above; details: pre-emerge, rated 14 days after application, 0 = no damage, 100 = complete death
How it was run: (§1)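 Compounds in acetone were track-sprayed at 15-1000 g ai/ha (187 l/ha) on sandy loam pots: pre-emerge one day after seeding, post-emerge at 2-3 leaf stage with 0.25% v/v non-ionic surfactant. Phytotoxicity was rated 14 days later on a 0 (no damage) to 100 (complete death) scale.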

[3] = system: common ragweed (Ambrosia artemisizfolia L., AMBEL); assay: as above; details: pre-emerge, rated 14 days after application, 0 = no damage, 100 = complete death
How it was run: as §1

[4] = system: green foxtail (Setaria viridis, SETVI); assay: as above; details: pre-emerge, rated 14 days after application, 0 = no damage, 100 = complete death
How it was run: as §1

[5] = system: ivyleaf morningglory (Ipomoea hederacea, IPOHE); assay: as above; details: pre-emerge, rated 14 days after application, 0 = no damage, 100 = complete death
How it was run: as §1

[6] = system: johnsongrass (Sorghum halepense, SORHA); assay: as above; details: pre-emerge, rated 14 days after application, 0 = no damage, 100 = complete death
How it was run: as §1

[7] = system: lambsquarters (Chenopodium album, CHEAL); assay: as above; details: pre-emerge, rated 14 days after application, 0 = no damage, 100 = complete death
How it was run: as §1

[8] = system: large crabgrass (Digitaria sanguinalis, DIGSA); assay: as above; details: pre-emerge, rated 14 days after application, 0 = no damage, 100 = complete death
How it was run: as §1

[9] = system: sicklepod (Cassia obtusifolia, CASOB); assay: as above; details: pre-emerge, rated 14 days after application, 0 = no damage, 100 = complete death
How it was run: as §1

[10] = system: velvetleaf (Abutilon theophrasti, ABUTH); assay: as above; details: pre-emerge, rated 14 days after application, 0 = no damage, 100 = complete death
How it was run: as §1

[11] = system: field corn (Zea mays L., var. Dekalb 535, CORN); assay: Pre-emerge test, crop safety; details: pre-emerge, rated 14 days after application, 0 = no damage, 100 = complete death
How it was run: as §1

[12] = system: upland rice (Oryza sp., var. Tebonnet, RICE); assay: Pre-emerge test, crop safety; details: pre-emerge, rated 14 days after application, 0 = no damage, 100 = complete death
How it was run: as §1

[13] = system: barnyardgrass (Echinochloa crus-galli, ECHCG); assay: Post-emerge test, greenhouse herbicide activity screening; details: phytotoxicity rating 0-100 (0 no damage, 100 complete death), 14 days after application
How it was run: (§2)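 Fourteen days after spraying, crop and weed injury was graded visually from 0, no effect, to 100, every plant dead. Test substances were dissolved in acetone and applied at 15–1000 g ai/ha with a flat-fan nozzle. Application was either pre-emergence, one day after sowing, or post-emergence at the 2–3 leaf stage.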

[14] = system: common ragweed (Ambrosia artemisizfolia L., AMBEL); assay: as above; details: phytotoxicity rating 0-100 (0 no damage, 100 complete death), 14 days after application
How it was run: as §2

[15] = system: green foxtail (Setaria viridis, SETVI); assay: as above; details: phytotoxicity rating 0-100 (0 no damage, 100 complete death), 14 days after application
How it was run: as §2

[16] = system: ivyleaf morningglory (Ipomoea hederacea, IPOHE); assay: as above; details: phytotoxicity rating 0-100 (0 no damage, 100 complete death), 14 days after application
How it was run: as §2

[17] = system: johnsongrass (Sorghum halepense, SORHA); assay: as above; details: phytotoxicity rating 0-100 (0 no damage, 100 complete death), 14 days after application
How it was run: as §2

[18] = system: lambsquarters (Chenopodium album, CHEAL); assay: as above; details: phytotoxicity rating 0-100 (0 no damage, 100 complete death), 14 days after application
How it was run: as §2

[19] = system: large crabgrass (Digitaria sanguinalis, DIGSA); assay: as above; details: phytotoxicity rating 0-100 (0 no damage, 100 complete death), 14 days after application
How it was run: as §2

[20] = system: redroot pigweed (Amaranthus retroflexus, AMARE); assay: as above; details: phytotoxicity rating 0-100 (0 no damage, 100 complete death), 14 days after application
How it was run: as §2

[21] = system: sicklepod (Cassia obtusifolia, CASOB); assay: as above; details: phytotoxicity rating 0-100 (0 no damage, 100 complete death), 14 days after application
How it was run: as §2

[22] = system: velvetleaf (Abutilon theophrasti, ABUTH); assay: as above; details: phytotoxicity rating 0-100 (0 no damage, 100 complete death), 14 days after application
How it was run: as §2

[23] = system: field corn (Zea mays L., var. Dekalb 535, CORN); assay: Post-emerge test, crop safety; details: phytotoxicity rating 0-100 (0 no damage, 100 complete death), 14 days after application
How it was run: as §1

[24] = system: upland rice (Oryza sp., var. Tebonnet, RICE); assay: Post-emerge test, crop safety; details: phytotoxicity rating 0-100 (0 no damage, 100 complete death), 14 days after application
How it was run: as §1

Compound: COc1c(Cl)cc(F)c(-n2c(=O)c(NC(=O)C(F)(F)F)c(C(F)(F)F)n(C)c2=O)c1NC(=O)C(F)(F)F [2-12]
- Pre-emerge Herbicidal Activity AMARE (phytotoxicity rating, scale 0-100) ([1]; 63 g ai/ha): 30
- Pre-emerge Herbicidal Activity AMARE (phytotoxicity rating, scale 0-100) ([1]; 250 g ai/ha): 100
- Pre-emerge Herbicidal Activity ECHCG (phytotoxicity rating, scale 0-100) ([2]; 63 g ai/ha): 0
- Pre-emerge Herbicidal Activity ECHCG (phytotoxicity rating, scale 0-100) ([2]; 250 g ai/ha): 0
- Pre-emerge Herbicidal Activity AMBEL (phytotoxicity rating, scale 0-100) ([3]; 63 g ai/ha): 0
- Pre-emerge Herbicidal Activity AMBEL (phytotoxicity rating, scale 0-100) ([3]; 250 g ai/ha): 0
- Pre-emerge Herbicidal Activity SETVI (phytotoxicity rating, scale 0-100) ([4]; 63 g ai/ha): 0
- Pre-emerge Herbicidal Activity SETVI (phytotoxicity rating, scale 0-100) ([4]; 250 g ai/ha): 0
- Pre-emerge Herbicidal Activity IPOHE (phytotoxicity rating, scale 0-100) ([5]; 63 g ai/ha): 40
- Pre-emerge Herbicidal Activity IPOHE (phytotoxicity rating, scale 0-100) ([5]; 250 g ai/ha): 70
- Pre-emerge Herbicidal Activity SORHA (phytotoxicity rating, scale 0-100) ([6]; 63 g ai/ha): 0
- Pre-emerge Herbicidal Activity SORHA (phytotoxicity rating, scale 0-100) ([6]; 250 g ai/ha): 0
- Pre-emerge Herbicidal Activity CHEAL (phytotoxicity rating, scale 0-100) ([7]; 63 g ai/ha): 0
- Pre-emerge Herbicidal Activity CHEAL (phytotoxicity rating, scale 0-100) ([7]; 250 g ai/ha): 30
- Pre-emerge Herbicidal Activity DIGSA (phytotoxicity rating, scale 0-100) ([8]; 63 g ai/ha): 0
- Pre-emerge Herbicidal Activity DIGSA (phytotoxicity rating, scale 0-100) ([8]; 250 g ai/ha): 0
- Pre-emerge Herbicidal Activity CASOB (phytotoxicity rating, scale 0-100) ([9]; 63 g ai/ha): 30
- Pre-emerge Herbicidal Activity CASOB (phytotoxicity rating, scale 0-100) ([9]; 250 g ai/ha): 40
- Pre-emerge Herbicidal Activity ABUTH (phytotoxicity rating, scale 0-100) ([10]; 63 g ai/ha): 50
- Pre-emerge Herbicidal Activity ABUTH (phytotoxicity rating, scale 0-100) ([10]; 250 g ai/ha): 70
- Pre-emerge crop damage CORN (phytotoxicity rating, scale 0-100) ([11]; 63 g ai/ha): 0
- Pre-emerge crop damage CORN (phytotoxicity rating, scale 0-100) ([11]; 250 g ai/ha): 0
- Pre-emerge crop damage RICE (phytotoxicity rating, scale 0-100) ([12]; 63 g ai/ha): 0
- Pre-emerge crop damage RICE (phytotoxicity rating, scale 0-100) ([12]; 250 g ai/ha): 0
- Post-emerge Herbicidal Activity ECHCG ([13]; 63 g ai/ha): 0
- Post-emerge Herbicidal Activity ECHCG ([13]; 250 g ai/ha): 0
- Post-emerge Herbicidal Activity AMBEL ([14]; 63 g ai/ha): 0
- Post-emerge Herbicidal Activity AMBEL ([14]; 250 g ai/ha): 10
- Post-emerge Herbicidal Activity SETVI ([15]; 63 g ai/ha): 0
- Post-emerge Herbicidal Activity SETVI ([15]; 250 g ai/ha): 0
- Post-emerge Herbicidal Activity IPOHE ([16]; 63 g ai/ha): 0
- Post-emerge Herbicidal Activity IPOHE ([16]; 250 g ai/ha): 50
- Post-emerge Herbicidal Activity SORHA ([17]; 63 g ai/ha): 0
- Post-emerge Herbicidal Activity SORHA ([17]; 250 g ai/ha): 0
- Post-emerge Herbicidal Activity CHEAL ([18]; 63 g ai/ha): 0
- Post-emerge Herbicidal Activity CHEAL ([18]; 250 g ai/ha): 40
- Post-emerge Herbicidal Activity DIGSA ([19]; 63 g ai/ha): 0
- Post-emerge Herbicidal Activity DIGSA ([19]; 250 g ai/ha): 0
- Post-emerge Herbicidal Activity AMARE ([20]; 63 g ai/ha): 0
- Post-emerge Herbicidal Activity AMARE ([20]; 250 g ai/ha): 10
- Post-emerge Herbicidal Activity CASOB ([21]; 63 g ai/ha): 0
- Post-emerge Herbicidal Activity CASOB ([21]; 250 g ai/ha): 0
- Post-emerge Herbicidal Activity ABUTH ([22]; 63 g ai/ha): 20
- Post-emerge Herbicidal Activity ABUTH ([22]; 250 g ai/ha): 65
- Post-emerge Herbicidal Activity CORN (crop damage) ([23]; 63 g ai/ha): 0
- Post-emerge Herbicidal Activity CORN (crop damage) ([23]; 250 g ai/ha): 0
- Post-emerge Herbicidal Activity RICE (crop damage) ([24]; 63 g ai/ha): 0
- Post-emerge Herbicidal Activity RICE (crop damage) ([24]; 250 g ai/ha): 0
